In the assay the test system is HIV-IIIb. Nature of the assay: Antiviral assay in MT4 cells. Format: cell-based. The note with it: Human immunodeficiency virus 1, MT4, 120 h; MT-4 cells mixed with HIV-IIIb at m.o.i. 0.003; 5 days at 37° C.; CellTiter-Glo luminescence; 50% decrease in signal, a measure of HIV-1 replication. In short, it runs like this: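 Compound, tested at ten 3-fold dilutions in quadruplicate in 10% FBS medium, received MT-4 cells pre-mixed 1 hour with HIV-IIIb (m.o.i. 0.003). Protection was read as luminescent cell viability (CellTiter-Glo) after 5 days' culture at 37° C.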
(In general: In ATP-based viability assays light output follows the ATP content of the culture.)
The EC50 is the concentration at which the effect is half-maximal. A high value points to a need for much substance. The molecule `Cn1cc(-c2nc3nc([C@H](Cc4cc(F)cc(F)c4)NC(=O)Cn4nc(C(F)F)c5c4C(F)(F)[C@@H]4C[C@H]54)c(-c4ccc(Cl)c5c(NS(C)(=O)=O)nn(C)c45)cc3[nH]2)cn1` [Example 98, N—((S)-1-(6-(4-chloro-1-methyl-3-(methylsulfonamido)-1H-indazol-7-yl)-2-(1-methyl-1H-pyrazol-4-yl)-1H-imidazo[4,5-b]pyridin-5-yl)-2-(3,5-difluorophenyl)ethyl)-2-((3bS,4aR)-3-(difluoromethyl)-5,5-difluoro-3b,4,4a,5-tetrahydro-1H-cyclopropa[3,4]cyclopenta[1,2-c]pyrazol-1-yl)acetamide] registered an EC50 of 3 nM. This lies in the single-digit nanomolar range.

On to `Cn1nc(NS(C)(=O)=O)c2cccc(-c3cc4sc(N5CCC(C)(N)CC5)nc4nc3C(Cc3cc(F)cc(F)c3)NC(=O)Cn3nc(C(F)(F)F)c4c3C(F)(F)[C@@H]3C[C@H]43)c21` (stereo partly drawn) [Example 126, N-(1-(2-(4-amino-4-methylpiperidin-1-yl)-6-(1-methyl-3-(methylsulfonamido)-1H-indazol-7-yl)thiazolo[4,5-b]pyridin-5-yl)-2-(3,5-difluorophenyl)ethyl)-2-((3bS,4aR)-5,5-difluoro-3-(trifluoromethyl)-3b,4,4a,5-tetrahydro-TH-cyclopropa[3,4]cyclopenta[1,2-c]pyrazol-1-yl)acetamide], for which the EC50 was determined as 33.8 nM.

`NC(=O)c1cc(-c2cc3sc(N4CCNC(=O)C4)nc3nc2[C@H](Cc2cc(F)cc(F)c2)NC(=O)Cn2nc(C(F)(F)F)c3c2C(F)(F)[C@@H]2C[C@H]32)ccc1F` [Compound 33, 5-(5-((S)-1-(2-((3bS,4aR)-5,5-difluoro-3-(trifluoromethyl)-3b,4,4a,5-tetrahydro-1H-cyclopropa[3,4]cyclopenta[1,2-c]pyrazol-1-yl)acetamido)-2-(3,5-difluorophenyl)ethyl)-2-(3-oxopiperazin-1-yl)thiazolo[4,5-b]pyridin-6-yl)-2-fluorobenzamide] showed an EC50 of 88.3 nM.

For the molecule `CC1(O)CN(c2nc3nc([C@H](Cc4cc(F)cc(F)c4)NC(=O)Cn4nc(C(F)F)c5c4C(F)(F)CCC5(F)F)c(-c4ccc(F)c(C(N)=O)c4)cc3s2)C1` [Compound 11, (S)-5-(5-(1-(2-(3-(difluoromethyl)-4,4,7,7-tetrafluoro-4,5,6,7-tetrahydro-1H-indazol-1-yl)acetamido)-2-(3,5-difluorophenyl)ethyl)-2-(3-hydroxy-3-methylazetidin-1-yl)thiazolo[4,5-b]pyridin-6-yl)-2-fluorobenzamide], the EC50 turned out to be 162 nM.

Turning to `Cc1c(-c2cc3sc(NCC(C)(C)O)nc3nc2[C@H](Cc2cc(F)cc(F)c2)NC(=O)Cn2nc(C(F)(F)F)c3c2C(F)(F)[C@@H]2C[C@H]32)ccc2n[nH]c(=O)n12` [Compound 54, 2-((3bS,4aR)-5,5-difluoro-3-(trifluoromethyl)-3b,4,4a,5-tetrahydro-1H-cyclopropa[3,4]cyclopenta[1,2-c]pyrazol-1-yl)-N—((S)-2-(3,5-difluorophenyl)-1-(2-((2-hydroxy-2-methylpropyl)amino)-6-(5-methyl-3-oxo-2,3-dihydro-[1,2,4]triazolo[4,3-a]pyridin-6-yl)thiazolo[4,5-b]pyridin-5-yl)ethyl)acetamide], a half-maximal response (EC50) required 26.2 nM. This EC50 lies about 6.2-fold lower than the previous one.

`NC(=O)c1cc(-c2cc3sc(N4CCOCC4)nc3nc2[C@H](Cc2cc(F)cc(F)c2)NC(=O)Cn2nc(C(F)F)c3c2C(F)(F)CCC3(F)F)ccc1F` [Compound 3, (S)-5-(5-(1-(2-(3-(difluoromethyl)-4,4,7,7-tetrafluoro-4,5,6,7-tetrahydro-1H-indazol-1-yl)acetamido)-2-(3,5-difluorophenyl)ethyl)-2-morpholinothiazolo[4,5-b]pyridin-6-yl)-2-fluorobenzamide] registered an EC50 of 160 nM. This EC50 lies about 6.1-fold higher than the previous one.

As for `COCc1nc2nc([C@H](Cc3cc(F)cc(F)c3)NC(=O)Cn3nc(C(F)(F)F)c4c3C(F)(F)[C@@H]3C[C@H]43)c(-c3ccc(Cl)c4c(NS(C)(=O)=O)nn(C)c34)cc2[nH]1` [Example 101, N—((S)-1-(6-(4-chloro-1-methyl-3-(methylsulfonamido)-1H-indazol-7-yl)-2-(methoxymethyl)-1H-imidazo[4,5-b]pyridin-5-yl)-2-(3,5-difluorophenyl)ethyl)-2-((3bS,4aR)-5,5-difluoro-3-(trifluoromethyl)-3b,4,4a,5-tetrahydro-1H-cyclopropa[3,4]cyclopenta[1,2-c]pyrazol-1-yl)acetamide], the EC50 came out at 2.1 nM.

With `Cn1nc(NS(C)(=O)=O)c2c(Cl)ccc(-c3cc4[nH]c(=O)ccc4nc3C(Cc3cc(F)cc(F)c3)NC(=O)Cn3nc(C(F)F)c4c3C(F)(F)[C@@H]3C[C@H]43)c21` (stereo partly drawn) [Compound 135, N-(1-(3-(4-chloro-1-methyl-3-(methylsulfonamido)-1H-indazol-7-yl)-6-oxo-5,6-dihydro-1,5-naphthyridin-2-yl)-2-(3,5-difluorophenyl)ethyl)-2-((3bS,4aR)-3-(difluoromethyl)-5,5-difluoro-3b,4,4a,5-tetrahydro-1H-cyclopropa[3,4]cyclopenta[1,2-c]pyrazol-1-yl)acetamide], the EC50 was 18 nM.

`CCS(=O)(=O)Nc1nn(C)c2c(-c3cc4sc(NCC(C)(C)O)nc4nc3[C@H](Cc3cc(F)cc(F)c3)NC(=O)Cn3nc(C(F)(F)F)c4c3C(F)(F)[C@@H]3C[C@H]43)cccc12` [Compound 63, 2-((3bS,4aR)-5,5-difluoro-3-(trifluoromethyl)-3b,4,4a,5-tetrahydro-1H-cyclopropa[3,4]cyclopenta[1,2-c]pyrazol-1-yl)-N—((S)-2-(3,5-difluorophenyl)-1-(6-(3-(ethylsulfonamido)-1-methyl-1H-indazol-7-yl)-2-((2-hydroxy-2-methylpropyl)amino)thiazolo[4,5-b]pyridin-5-yl)ethyl)acetamide] showed an EC50 of 7.2 nM.

With `NC(=O)c1cc(-c2cc3sc(NC4CCOC4)nc3nc2[C@H](Cc2cc(F)cc(F)c2)NC(=O)Cn2nc(C(F)F)c3c2C(F)(F)CCC3(F)F)ccc1F` (stereo partly drawn) [Compound 9, 5-(5-((S)-1-(2-(3-(difluoromethyl)-4,4,7,7-tetrafluoro-4,5,6,7-tetrahydro-1H-indazol-1-yl)acetamido)-2-(3,5-difluorophenyl)ethyl)-2-((tetrahydrofuran-3-yl)amino)thiazolo[4,5-b]pyridin-6-yl)-2-fluorobenzamide], the EC50 was 266 nM.

For `NC(=O)c1cc(-c2cc3sc(N4CCN(c5cncnc5)CC4)nc3nc2[C@H](Cc2cc(F)cc(F)c2)NC(=O)Cn2nc(C(F)(F)F)c3c2C(F)(F)[C@@H]2C[C@H]32)ccc1F` [Compound 25, 5-(5-((S)-1-(2-((3bS,4aR)-5,5-difluoro-3-(trifluoromethyl)-3b,4,4a,5-tetrahydro-1H-cyclopropa[3,4]cyclopenta[1,2-c]pyrazol-1-yl)acetamido)-2-(3,5-difluorophenyl)ethyl)-2-(4-(pyrimidin-5-yl)piperazin-1-yl)thiazolo[4,5-b]pyridin-6-yl)-2-fluorobenzamide], the EC50 came to 111 nM.
